For this experiment, the target named is T1, SALL4 (Homo sapiens, UniProt Q96SW2+Q9UJQ4).
T1 construct: expressed in transfected cells; host or cells: GripTite 293 MSR cells (293GT), ThermoFisher Scientific, stably transfected by electroporation, blasticidin-selected clones
The experiment in a line: Quantification of SALL4 protein levels in HiBiT tag fusion protein assay. Type of experiment: cell-based. The method, then:
The HiBiT system from Promega was used to develop high-throughput and quantitative assays to measure changes in SALL4 protein levels in response to compounds. The HiBiT tag was derived from a split Nanoluciferase and has the following protein sequence: […] (SEQ ID No: 1). The complementary fragment of Nanoluciferase (known as LgBiT, from Promega), was added to the HiBiT tag to form an active Nanoluciferase enzyme whose activity can be precisely measured. In this way, the levels of a fusion protein with the HiBiT tag can be quantified in cell lysates.
DNA constructs, based on the Invitrogen pLenti6.2/V5 DEST backbone, were constructed with the HiBiT tag upstream of SALL4 and expressed the fusion protein from a CMV promotor.
To ensure moderate and consistent expression of the HiBiT-SALL4 fusion protein across all cells in the population, stable cell lines were derived from clones. GripTite 293 MSR cells (293GT) from ThermoFisher Scientific (Catalog number: CRL-R79507), were stably transfected with prepared constructs via electroporation. Following recovery, cells were selected by 10 ug/mL blasticidin in culture media.
The levels of HiBiT-SALL4 tagged fusion proteins in compound-treated cell lines were measured as follows:
On day 1, cells were diluted to 1.0×10^6 cells/ml in normal growth medium. 20 μL of cell suspension were plated in each well of a solid white 384-well plate. Plates were incubated overnight in a 37° C. and 5% CO2 humidified tissue culture incubator.
On day 2, serial dilutions of compounds were made in 384-well plates. Compound plates were set up with DMSO in columns 1, 2, 23, 24, and 10-point compound dilution series in column 3-12 and column 13-22. 10 mM stock solution of compound were placed into column 3 or 13 and a 1:5 serial dilution was carried out until there was a 10-point dilution series per compound. 100 nL of diluted compounds were transferred into the plated cells by Echo® (Labcyte) acoustic transfer. The highest concentration of compound was 50 μM. Plates were incubated overnight (18 hours) in a 37° C. and 5% CO2 humidified tissue culture incubator.
On day 3, plates were removed from the incubator and allowed to equilibrate at room temperature for 60 minutes. HiBiT substrate (Nano-Glo® HiBit Lytic Detection System, Promega Catalogue number: N3050) was added as described by the manufacturers protocols. Plates were incubated at room temperature for 30 minutes and luminescence was read using an EnVision® reader (PerkinElmer®). Data was analyzed and visualized using the Spotfire® software package.
SALL4 Amax reflects the DMSO-normalized, curve-fitted percentage of SALL4-HiBiT remaining at 50 uM. It was calculated by normalizing DMSO controls to 100%, parametric curve fitting of the dose response data (10-point, 5-fold), followed by calculation of response at 50 uM using the fitted equation.
This assay produced a range of SALL4 AC50 and Amax values over several repeat runs due to normal variations in the assay. For a comparison to the compounds described in PCT/IB2020/062070, the arithmatic mean values are reported over the number of repeats specified. […] The compounds of the present disclosure are therefore expected to have improved toxicological properties (Matyskiela, M. E., Couto, S., Zheng, X. et al. SALL4 mediates teratogenicity as a thalidomide-dependent cereblon substrate. Nat Chem Biol 14, 981-987 (2018); Donovan, K. A. et al. Thalidomide promotes degradation of SALL4, a transcription factor Implicated in Duane Radial Ray syndrome. eLife 2018; 7:e38430).
A general note: With HiBiT, luminescence reflects the tagged protein that the partner subunit can reach.

T1 sequence (Q9UJQ4 whole entry): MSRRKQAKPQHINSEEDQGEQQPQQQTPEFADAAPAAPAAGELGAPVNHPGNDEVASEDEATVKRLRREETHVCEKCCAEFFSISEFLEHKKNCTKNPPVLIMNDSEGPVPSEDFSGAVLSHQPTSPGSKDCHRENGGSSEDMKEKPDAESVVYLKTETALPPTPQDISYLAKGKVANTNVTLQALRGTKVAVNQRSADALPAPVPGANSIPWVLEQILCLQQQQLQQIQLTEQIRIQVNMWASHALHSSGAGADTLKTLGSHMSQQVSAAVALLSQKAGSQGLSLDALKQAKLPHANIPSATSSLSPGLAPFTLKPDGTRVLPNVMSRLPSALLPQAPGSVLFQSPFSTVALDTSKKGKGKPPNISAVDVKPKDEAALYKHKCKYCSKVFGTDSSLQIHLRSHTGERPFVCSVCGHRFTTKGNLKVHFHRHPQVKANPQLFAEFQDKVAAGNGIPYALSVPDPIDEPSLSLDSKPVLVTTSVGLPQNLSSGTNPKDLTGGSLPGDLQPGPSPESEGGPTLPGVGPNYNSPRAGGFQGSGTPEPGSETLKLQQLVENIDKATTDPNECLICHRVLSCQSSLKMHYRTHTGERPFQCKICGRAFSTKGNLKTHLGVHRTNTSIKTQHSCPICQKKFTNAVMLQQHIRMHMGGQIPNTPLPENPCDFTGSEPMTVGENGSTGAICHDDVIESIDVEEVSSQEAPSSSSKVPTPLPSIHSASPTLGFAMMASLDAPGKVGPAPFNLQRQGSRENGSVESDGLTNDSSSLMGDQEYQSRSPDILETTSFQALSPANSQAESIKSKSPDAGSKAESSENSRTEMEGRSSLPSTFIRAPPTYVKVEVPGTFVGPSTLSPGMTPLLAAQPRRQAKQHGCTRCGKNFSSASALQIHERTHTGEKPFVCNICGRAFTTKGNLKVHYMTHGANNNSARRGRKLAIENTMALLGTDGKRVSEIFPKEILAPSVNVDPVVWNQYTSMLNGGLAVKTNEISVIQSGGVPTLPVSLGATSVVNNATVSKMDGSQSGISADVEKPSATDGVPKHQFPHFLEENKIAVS
T1 sequence (Q96SW2 whole entry): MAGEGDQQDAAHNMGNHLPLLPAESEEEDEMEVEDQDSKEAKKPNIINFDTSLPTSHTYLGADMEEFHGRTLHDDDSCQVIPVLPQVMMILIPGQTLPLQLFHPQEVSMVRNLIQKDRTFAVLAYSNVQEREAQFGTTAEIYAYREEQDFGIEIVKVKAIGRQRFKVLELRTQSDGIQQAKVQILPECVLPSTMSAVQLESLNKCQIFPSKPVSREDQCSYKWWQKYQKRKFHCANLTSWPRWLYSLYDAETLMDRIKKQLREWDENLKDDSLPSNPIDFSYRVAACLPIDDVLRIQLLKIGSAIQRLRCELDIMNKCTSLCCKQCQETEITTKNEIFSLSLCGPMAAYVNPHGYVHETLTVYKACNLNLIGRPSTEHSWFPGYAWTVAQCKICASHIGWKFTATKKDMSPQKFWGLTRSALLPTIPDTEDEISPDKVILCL
T1 sequence (Q16531 whole entry partner): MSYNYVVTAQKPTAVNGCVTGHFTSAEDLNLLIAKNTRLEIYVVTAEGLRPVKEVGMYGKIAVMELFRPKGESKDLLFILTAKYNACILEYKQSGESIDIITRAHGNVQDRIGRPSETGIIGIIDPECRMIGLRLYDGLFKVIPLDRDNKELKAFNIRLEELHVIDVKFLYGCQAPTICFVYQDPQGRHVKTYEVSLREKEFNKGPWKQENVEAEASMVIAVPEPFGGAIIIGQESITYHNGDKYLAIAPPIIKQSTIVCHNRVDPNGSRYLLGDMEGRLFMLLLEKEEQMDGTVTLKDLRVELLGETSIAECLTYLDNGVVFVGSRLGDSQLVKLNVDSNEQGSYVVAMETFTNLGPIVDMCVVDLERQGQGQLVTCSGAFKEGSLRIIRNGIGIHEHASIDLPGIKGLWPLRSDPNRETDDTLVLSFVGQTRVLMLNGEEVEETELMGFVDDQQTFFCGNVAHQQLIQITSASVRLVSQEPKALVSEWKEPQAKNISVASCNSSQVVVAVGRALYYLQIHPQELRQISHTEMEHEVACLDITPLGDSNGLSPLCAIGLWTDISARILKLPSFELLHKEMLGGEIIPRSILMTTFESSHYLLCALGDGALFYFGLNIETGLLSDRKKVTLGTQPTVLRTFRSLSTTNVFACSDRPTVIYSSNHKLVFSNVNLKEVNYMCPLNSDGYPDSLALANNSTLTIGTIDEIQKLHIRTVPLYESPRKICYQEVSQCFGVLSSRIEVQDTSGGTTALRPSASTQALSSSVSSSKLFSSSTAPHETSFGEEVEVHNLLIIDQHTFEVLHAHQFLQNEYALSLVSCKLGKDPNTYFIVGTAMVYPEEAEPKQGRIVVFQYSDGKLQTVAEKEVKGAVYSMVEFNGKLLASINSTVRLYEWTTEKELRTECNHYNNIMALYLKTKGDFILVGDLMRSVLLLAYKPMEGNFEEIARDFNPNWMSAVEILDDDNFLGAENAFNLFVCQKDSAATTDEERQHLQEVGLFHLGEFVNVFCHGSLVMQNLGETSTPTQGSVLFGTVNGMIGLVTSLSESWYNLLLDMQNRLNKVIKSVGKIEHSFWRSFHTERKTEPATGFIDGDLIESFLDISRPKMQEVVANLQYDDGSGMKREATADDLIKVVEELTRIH

Take `CCN1CCC[C@@H](Oc2ccc3c(c2)CN(C2CCC(=O)NC2=O)C3=O)C1` (mixture of isomers) [Example 1, 3-(5-(((R)-1-ethylpiperidin-3-yl)oxy)-1-oxoisoindolin-2-yl)piperidine-2,6-dione]: the “SALL4 Amax” value (DMSO-normalized, curve-fitted percentage of SALL4-HiBiT remaining at 50 uM, mean over repeats) turned out to be 72.21%. Besides, the DC50 (arithmatic mean over number of repeats, 18 hours, top 50 μM, read-out: SALL4 AC50) came to 49 nM.

Source of the values: patent US12103919B2, “3-(5-oxy)-1-oxoisoindolin-2-yl)piperidine-2,6-dione derivatives and uses thereof” (NOVARTIS AG, priority 2021, dated 2024).
